# Source: patent US10293148B2, “System, retainer and method of preventing and treating nosocomial infections including methicillin-resistant Staphylococcus aureus infections” (priority 2017, dated 2019)
# System: S. epidermidis ATCC 12228
# Assay: ASTM E1153 sanitizer test on inoculated glass carriers
# Assay type: cell-based, staphylococcus epidermidis
# Protocol: As used herein, “CFU” refers to “colony forming unit;” the term “Log Reduction” means Log(B/A), where B=the colony form unit (CFU) number of viable test microorganisms on the control carriers after the contact time and A=the colony form unit (CFU) number of viable test microorganisms on the test carriers after the contact time. All log numbers are base-10 logarithms. […] The experiment was conducted pursuant to the American Society for Testing and Materials (ASTM) E1153, a quantitative test method designed to substantiate sanitizer claims for disinfectants on inanimate, non-porous, non-food contact surfaces. […] The commercial acne products were categorized based on their identified disinfecting ingredient. The representative test microorganism used to conduct the study was staphylococcus epidermidis (“S. epidermidis”). S. epidermidis is a gram-positive, cocci-shaped, facultative anaerobe, living mainly on the skin's surface and mucosa. S. epidermidis is one of the most common organisms contributing to nosocomial infections due to the increase in medical usage of biomaterials. Specifically, S. epidermidis infections are associated with intravascular devices (prosthetic heart valves, shunts, etc.), prosthetic joints, catheters, and postoperative wounds and the urinary tract. […] The ASTM […] protocol includes growing the test microorganism in a liquid culture medium. A series of hard, non-porous glass slides (“carriers”) are inoculated with the representative test microorganisms, and subsequently dried in an incubator. ASTM […] utilizes non-antimicrobial agents as controls to establish baselines for microbial reductions. For this study, each inoculation area was kept to a 10 mm circle to match the output tip of the […] light source. Once completely dried, the inoculated test carriers were treated with the test substances and incubated for the predetermined contact time. […] Each […] light source was set to the high power setting for testing. Control carriers were treated with a buffered saline solution and allowed to sit for the predetermined contact time. At the conclusion of the contact time, treated carriers were transferred to vessels containing neutralizing media. Dilutions of the neutralized test substance were assayed for microbial survivors using appropriate growth media. To determine microbial reduction, the effect of the test substance is compared to the effect of the control substance. […] The percent reduction is determined by evaluating the number of microorganisms on the control carriers after the contact time with the number of viable microorganisms on the test carriers after contact time.
# [1] = stand-alone, no light, contact time 10 Seconds, Initial Numbers 1.4E+05
# [2] = stand-alone, no light, contact time 20 Seconds, Initial Numbers 1.4E+05
# [3] = stand-alone, no light, contact time 30 Seconds, Initial Numbers 1.4E+05
# [4] = with Synederm Light (385-515 nm), contact time 10 Seconds, Numbers Control 2.97E+05
# [5] = with Synederm Light (385-515 nm), contact time 30 Seconds, Numbers Control 2.97E+05
# [6] = with Synederm Light (385-515 nm), contact time 60 Seconds, Numbers Control 2.97E+05
# [7] = with Synederm Light (420-480 nm), contact time 10 Seconds, Numbers Control 2.97E+05
# [8] = with Synederm Light (420-480 nm), contact time 30 Seconds, Numbers Control 2.97E+05
# [9] = with Synederm Light (420-480 nm), contact time 60 Seconds, Numbers Control 2.97E+05
# [10] = with Synederm Light (385-515 nm), contact time 10 Seconds, Numbers Control 2.97E+05, listed as 3.0% Hydrogen Peroxide
# [11] = with Synederm Light (385-515 nm), contact time 30 Seconds, Numbers Control 2.97E+05, listed as 3.0% Hydrogen Peroxide
# [12] = with Synederm Light (385-515 nm), contact time 60 Seconds, Numbers Control 2.97E+05, listed as 3.0% Hydrogen Peroxide
# [13] = with Synederm Light (420-480 nm), contact time 10 Seconds, Numbers Control 2.97E+05, listed as 3.0% Hydrogen Peroxide
# [14] = with Synederm Light (420-480 nm), contact time 30 Seconds, Numbers Control 2.97E+05, listed as 3.0% Hydrogen Peroxide
# [15] = with Synederm Light (420-480 nm), contact time 60 Seconds, Numbers Control 2.97E+05, listed as 3.0% Hydrogen Peroxide
compound,measurement,setting,value
"OO [0.3% Hydrogen Peroxide, hydrogen peroxide]",CFU/Carrier,[1],8.3E+04 CFU/Carrier
same,Log10 Reduction Compared to Control,[1],0.23 Log10
same,Percent Reduction Compared to Control,[1],40.7%
same,CFU/Carrier,[2],7.50E+04 CFU/Carrier
same,Log10 Reduction Compared to Control,[2],0.27 Log10
same,Percent Reduction Compared to Control,[2],46.4%
same,CFU/Carrier,[3],1.20E+05 CFU/Carrier
same,Log10 Reduction Compared to Control,[3],0.07 Log10
same,Percent Reduction Compared to Control,[3],14.3%
same,CFU/Carrier,[4],7.58E+4 CFU/Carrier
same,Log10 Reduction Compared to Control,[4],0.59 Log10
same,Percent Reduction Compared to Control,[4],74.4%
same,CFU/Carrier,[5],3.66E+04 CFU/Carrier
same,Log10 Reduction Compared to Control,[5],0.91 Log10
same,Percent Reduction Compared to Control,[5],87.7%
same,CFU/Carrier,[6],9.10E+03 CFU/Carrier
same,Log10 Reduction Compared to Control,[6],1.51 Log10
same,Percent Reduction Compared to Control,[6],96.9%
same,CFU/Carrier,[7],1.30E+05 CFU/Carrier
same,Log10 Reduction Compared to Control,[7],0.36 Log10
same,Percent Reduction Compared to Control,[7],56.2%
same,CFU/Carrier,[8],1.30E+05 CFU/Carrier
same,Log10 Reduction Compared to Control,[8],0.36 Log10
same,Percent Reduction Compared to Control,[8],56.3%
same,CFU/Carrier,[9],2.28E+04 CFU/Carrier
same,Log10 Reduction Compared to Control,[9],1.11 Log10
same,Percent Reduction Compared to Control,[9],92.3%
"OO [3% Hydrogen Peroxide, hydrogen peroxide]",CFU/Carrier,[1],7.50E+04 CFU/Carrier
same,Log10 Reduction Compared to Control,[1],0.27 Log10
same,Percent Reduction Compared to Control,[1],46.4%
same,CFU/Carrier,[2],8.00E+04 CFU/Carrier
same,Log10 Reduction Compared to Control,[2],0.24 Log10
same,Percent Reduction Compared to Control,[2],42.9%
same,CFU/Carrier,[3],6.30E+04 CFU/Carrier
same,Log10 Reduction Compared to Control,[3],0.35 Log10
same,Percent Reduction Compared to Control,[3],55%
same,CFU/Carrier,[10],5.80E+04 CFU/Carrier
same,Log10 Reduction Compared to Control,[10],0.71 Log10
same,Percent Reduction Compared to Control,[10],80.4%
same,CFU/Carrier,[11],1.34E+03 CFU/Carrier
same,Log10 Reduction Compared to Control,[11],2.34 Log10
same,Percent Reduction Compared to Control,[11],99.5%
same,CFU/Carrier,[12],<1.00E+01 CFU/Carrier
same,Log10 Reduction Compared to Control,[12],>4.55 Log10
same,Percent Reduction Compared to Control,[12],>99.997%
same,CFU/Carrier,[13],2.19E+04 CFU/Carrier
same,Log10 Reduction Compared to Control,[13],1.13 Log10
same,Percent Reduction Compared to Control,[13],92.6%
same,CFU/Carrier,[14],6.20E+03 CFU/Carrier
same,Log10 Reduction Compared to Control,[14],1.68 Log10
same,Percent Reduction Compared to Control,[14],97.9%
same,CFU/Carrier,[15],<1.00E+01 CFU/Carrier
same,Log10 Reduction Compared to Control,[15],>4.55 Log10
same,Percent Reduction Compared to Control,[15],>99.997%
same,ASTM International passing criteria (3 Log10 or 99.9% reduction),with Synederm light (385-515nm) for 60 seconds,satisfied the ASTM International passing criteria
same,ASTM International passing criteria (3 Log10 or 99.9% reduction),with Synederm light (420-480nm) for 60 seconds,satisfied the ASTM International passing criteria
